Assay results reported in patent US12617783B2, “Heterocyclic GLP-1R agonists” (BIOMEA FUSION, INC., priority 2024, dated 2026).

Each compound was assayed against T1, human GLP-1R (Homo sapiens, UniProt P43220) (assay: GLP-1R cAMP assay (Example B1a, HTRF, 30 min at room temperature)). Conditions: cAMP accumulation in HEK293 expressing human GLP-1R, no BETP, 30 min room temperature (Method B1a, compounds ID 1-609), Table 1; read-out: EC50.
T1 construct: host or cells: HEK293
T1 sequence (P43220 24-463): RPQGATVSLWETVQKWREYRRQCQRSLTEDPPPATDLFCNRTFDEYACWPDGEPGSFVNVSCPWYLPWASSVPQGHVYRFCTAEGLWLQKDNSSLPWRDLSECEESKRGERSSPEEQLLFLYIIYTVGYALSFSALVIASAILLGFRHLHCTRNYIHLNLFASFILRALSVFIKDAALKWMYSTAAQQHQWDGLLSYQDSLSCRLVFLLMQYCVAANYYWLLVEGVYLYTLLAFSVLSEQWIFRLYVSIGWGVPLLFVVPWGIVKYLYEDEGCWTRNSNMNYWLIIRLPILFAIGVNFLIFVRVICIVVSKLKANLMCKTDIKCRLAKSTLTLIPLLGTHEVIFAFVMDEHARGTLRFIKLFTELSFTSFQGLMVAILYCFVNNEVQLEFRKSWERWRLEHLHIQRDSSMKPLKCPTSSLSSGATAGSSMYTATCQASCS
Assay type: cell-based
Description: Assay was carried out with HEK293 expressing human GLP-1R using HTRF assay, developed by Wuxi Apptec. The method is a competitive assay between native cAMP produced by the cells and exogenous cAMP labeled with a proprietary dye d2. The tracer binding is visualized by a mAb anti-cAMP labeled with Cryptate. The signal (i.e. energy transfer) is inversely proportional to the concentration of CAMP in either standard or experimental sample. Compounds were tested in the absence of BETP. Ten microliter of cell suspension in assay buffer (5 mM HEPES, 500 μM IBMX, 0.1% BSA) were added to each well (1,000 cells per well) in a low volume 384-well plate for the assay. Serially diluted compounds were added in 100 nL volume to duplicate wells, by Labcyte Echo. GLP-1 (7-37) was used as positive control. Assay plate was incubated for 30 minutes at room temperature. Stock of cAMP Detection Solution was prepared by mixing 38 parts of cAMP lysis buffer, 1 part of cAMP-D2, 1 part of anti-cAMP cryptate reagent (Cisbio #62AM4PEJ). Ten microliter of the cAMP Detection Solution was added to each well, and the assay plate was incubated for 1 hour at room temperature in the dark. Plates were read on Envision plate reader. The data were analyzed by ScreenUltra in Dotmatics, with % activation expressed using following formula: (Well data−negative control)/(postive control−negative control)*100. Dose response curves were plotted and EC50 values calculated by non-linear regression using 4-parameter fit.
Compound `Cc1cc(-n2nc3c(c2-n2ccn(-c4ccc5c(cnn5C)c4F)c2=O)[C@@H]2CC[C@H](C3)N2C(=O)c2cc3c(=O)n([C@H]4CCOC(C)(C)C4)ccc3n2[C@@]2(c3noc(=O)[nH]3)C[C@@H]2C)cc(C)c1F` [Compound 238, 3-[(1S,2S)-1-[5-[(4S)-2,2-dimethyltetrahydropyran-4-yl]-2-[(1S,8R)-4-(4-fluoro-3,5-dimethyl-phenyl)-3-[3-(4-fluoro-1-methyl-indazol-5-yl)-2-oxo-imidazol-1-yl]-4,5,11-triazatricyclo[6.2.1.02,6]undeca-2,5-diene-11-carbonyl]-4-oxo-pyrrolo[3,2-c]pyridin-1-yl]-2-methyl-cyclopropyl]-4H-1,2,4-oxadiazol-5-one] has an EC50 greater than 10000 nM. Work on `CCP(=O)(CC)c1ccc(-n2ccn(-c3c4c(nn3-c3cc(C)c(F)c(C)c3)C[C@H]3CC[C@@H]4N3C(=O)c3cc4cc(C5CCOCC5)ccc4n3[C@@]3(c4noc(=O)[nH]4)C[C@@H]3C)c2=O)cc1NC` [Compound 216, 3-[(1S,2S)-1-[2-[(1S,8R)-3-[3-[4-diethylphosphoryl-3-(methylamino)phenyl]-2-oxo-imidazol-1-yl]-4-(4-fluoro-3,5-dimethyl-phenyl)-4,5,11-triazatricyclo[6.2.1.02,6]undeca-2,5-diene-11-carbonyl]-5-tetrahydropyran-4-yl-indol-1-yl]-2-methyl-cyclopropyl]-4H-1,2,4-oxadiazol-5-one] yielded an EC50 of 233 nM. For `Cc1cc(-n2nc3c(c2-n2ccn(-c4ccc5c(cnn5C)c4F)c2=O)C2COCC(C3)N2C(=O)c2cc3cc([C@H]4CCOC(C)(C)C4)ccc3n2[C@@]2(c3noc(=O)[nH]3)C[C@@H]2C)cc(C)c1F` (stereo partly drawn) [Compound 116, 3-((1S,2S)-1-(5-((S)-2,2-dimethyltetrahydro-2H-pyran-4-yl)-2-(3-(3-(4-fluoro-1-methyl-1H-indazol-5-yl)-2-oxo-2,3-dihydro-1H-imidazol-1-yl)-2-(4-fluoro-3,5-dimethylphenyl)-2,4,5,7,8,9-hexahydro-4,8-epiminooxocino [5,4-c]pyrazole-10-carbonyl)-1H-indol-1-yl)-2-methylcyclopropyl)-1,2,4-oxadiazol-5(4H)-one], the EC50 was 174 nM. For `Cc1cc(-n2nc3c(c2-n2ccn(-c4ccc5c(cnn5C)c4F)c2=O)[C@@H]2CC[C@H](C3)N2C(=O)c2cc3cc([C@@H]4CCOC5(CC5)C4)ccc3n2[C@]2(c3noc(=O)[nH]3)C[C@H]2C)cc(C)c1F` [Compound 516, 3-[(1R,2R)-1-[2-[(1S,8R)-4-(4-fluoro-3,5-dimethyl-phenyl)-3-[3-(4-fluoro-1-methyl-indazol-5-yl)-2-oxo-imidazol-1-yl]-4,5,11-triazatricyclo[6.2.1.02,6]undeca-2,5-diene-11-carbonyl]-5-[(7R)-4-oxaspiro[2.5]octan-7-yl]indol-1-yl]-2-methyl-cyclopropyl]-4H-1,2,4-oxadiazol-5-one], the EC50 was no less than 10000 nM. `Cc1cc(-n2nc3c(c2-c2ncn(-c4ccc5c(cnn5C)c4F)c2C)[C@H](C)N(C(=O)c2cc4cc([C@H]5CCOC(C)(C)C5)ccc4n2[C@@]2(c4noc(=O)[nH]4)C[C@@H]2C)CC3)cc(C)c1F` [Compound 15, 3-((1S,2S)-1-(5-((S)-2,2-dimethyltetrahydro-2H-pyran-4-yl)-2-((S)-3-(1-(4-fluoro-1-methyl-1H-indazol-5-yl)-5-methyl-1H-imidazol-4-yl)-2-(4-fluoro-3,5-dimethylphenyl)-4-methyl-4,5,6,7-tetrahydro-2H-pyrazolo[4,3-c]pyridine-5-carbonyl)-1H-indol-1-yl)-2-methylcyclopropyl)-1,2,4-oxadiazol-5 (4H)-one] was tested, and the EC50 was 584 nM.
